According to ChEMBL document CHEMBL1130041, “Halogenated 4-(phenoxymethyl)piperidines as potential radiolabeled probes for sigma-1 receptors: in vivo evaluation of [123I]-1-(iodopropen-2-yl)-4-[(4-cyanophenoxy)methyl]pip eri dine” (J Med Chem, 1997):

Tests used:
Rattus norvegicus [1] = species: Rattus norvegicus; test: Blockade of uptake of the radiotracer in posterior cortex of rat; type: functional
[2] = Partition coefficient (logP); type: physicochemical; details: octanol/water
[3] = In Vitro binding affinity for 5-hydroxytryptamine 2 receptor
Sigma 2 receptor [4] = test: In vitro for binding affinity at sigma-2 receptor by measuring its ability to displace [3H]DTG from guinea pig membranes; design: species or system Cavia porcellus
[5] = (§1) Ki ratio measured as Ki of sigma-2 receptor to that of sigma-1 receptor.
D(2) dopamine receptor = D(2) dopamine receptor (Homo sapiens, UniProt P14416); test: In vitro binding affinity for Dopamine receptor D2
[6] = biological target: T1, Sigma non-opioid intracellular receptor 1 (Homo sapiens, UniProt Q99720); test: Receptor binding affinity against Sigma receptor
[7] = biological target: T1, Sigma non-opioid intracellular receptor 1; test: Ki ratio measured as Ki of sigma-2 receptor to that of sigma-1 receptor; details: Cavia porcellus
Sigma 2 receptor [8] = test: Receptor binding affinity against Sigma-2 receptor from guinea pig membranes; design: species or system Cavia porcellus
[9] = biological target: T1, Sigma non-opioid intracellular receptor 1; test: as §1; details: Cavia porcellus
Rattus norvegicus [10] = species: Rattus norvegicus; test: Blockade of uptake of the radiotracer in posterior cortex; type: functional

Sequence of D(2) dopamine receptor (P14416 whole entry): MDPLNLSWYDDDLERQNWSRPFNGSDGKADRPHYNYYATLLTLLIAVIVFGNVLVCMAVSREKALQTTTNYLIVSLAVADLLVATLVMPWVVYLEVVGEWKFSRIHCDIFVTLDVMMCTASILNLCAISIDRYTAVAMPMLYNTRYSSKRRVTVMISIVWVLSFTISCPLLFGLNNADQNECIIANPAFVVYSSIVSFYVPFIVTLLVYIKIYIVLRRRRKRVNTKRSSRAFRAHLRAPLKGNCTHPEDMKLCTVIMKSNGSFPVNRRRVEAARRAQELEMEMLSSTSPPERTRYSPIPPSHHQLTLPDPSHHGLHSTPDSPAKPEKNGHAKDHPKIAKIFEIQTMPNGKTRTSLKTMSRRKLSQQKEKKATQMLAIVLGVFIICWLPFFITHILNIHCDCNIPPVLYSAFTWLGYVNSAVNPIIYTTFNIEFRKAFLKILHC
T1 sequence (Q99720 whole entry): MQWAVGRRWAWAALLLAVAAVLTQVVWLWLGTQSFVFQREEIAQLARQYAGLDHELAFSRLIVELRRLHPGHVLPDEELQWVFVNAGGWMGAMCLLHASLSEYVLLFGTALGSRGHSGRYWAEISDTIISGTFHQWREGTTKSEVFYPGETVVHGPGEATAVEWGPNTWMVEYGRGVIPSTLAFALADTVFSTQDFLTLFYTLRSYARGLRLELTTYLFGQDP

O=C(CCCN1CCC(O)(c2ccc(Cl)cc2)CC1)c1ccc(F)cc1 [HALOPERIDOL]
Blockade (Rattus norvegicus [1]): 91%

N#Cc1ccc(OCC2CCN(Cc3ccccc3Br)CC2)cc1
logP [2]: 4.09
Ki [3]: > 1000 nM
Ki (Sigma 2 receptor [4]): 31.1 nM
Ratio [5]: 15.4

Fc1c(F)c(F)c(CN2CCC(COc3c(F)c(F)c(F)c(F)c3F)CC2)c(F)c1F
Ki [3]: > 10000 nM
Ki (Sigma 2 receptor [4]): > 1000 nM

Brc1ccc(OCC2CCN(CC3CC3)CC2)cc1
logP [2]: 6.22
Ki (D(2) dopamine receptor): > 10000 nM
Ki [3]: > 10000 nM
Ki (Sigma 2 receptor [4]): 13.6 nM
Ratio [5]: 22.7

N#Cc1ccc(OCC2CCN(CC3CC3)CC2)cc1
Ki [3]: > 200 nM
Ki [6]: 10 nM

O=C(CC1CCN(CC2CC2)CC1)c1ccc(F)cc1
Ki [3]: 15 nM

Fc1ccc(CN2CCC(COc3c(F)c(F)c(F)c(F)c3F)CC2)cc1
Ki [3]: > 10000 nM
Ki (Sigma 2 receptor [4]): 4.3 nM
Ratio [5]: 1.17

Ic1ccc(OCC2CCN(CC3CC3)CC2)cc1
logP [2]: 6.67
Ki (D(2) dopamine receptor): > 10000 nM
Ki [3]: > 10000 nM
Ki (Sigma 2 receptor [4]): 11.7 nM
Ratio [5]: 23.4

FCCCN1CCC(COc2c(F)c(F)c(F)c(F)c2F)CC1
logP [2]: 4.11
Ki [3]: > 10000 nM
Ki (Sigma 2 receptor [4]): 5.3 nM
Ratio [5]: 2.05

N#Cc1ccc(OCC2CCN(CCCF)CC2)cc1
logP [2]: 2.93
Ki (D(2) dopamine receptor): > 10000 nM
Ki [3]: > 10000 nM
Ki (Sigma 2 receptor [4]): 144 nM

Fc1cccc(CN2CCC(COc3c(F)c(F)c(F)c(F)c3F)CC2)c1
logP [2]: 4.72
Ki [3]: > 10000 nM
Ki (Sigma 2 receptor [4]): 25 nM
Ratio [5]: 7.48

N#Cc1cccc(CN2CCC(COc3ccc(I)cc3)CC2)c1
logP [2]: 4.19
Ki [3]: > 1000 nM
Ki (Sigma 2 receptor [4]): 69.5 nM
Ratio [5]: 24

N#Cc1ccccc1CN1CCC(COc2ccc(I)cc2)CC1
logP [2]: 4.32
Ki [3]: > 1000 nM
Ki (Sigma 2 receptor [4]): 142 nM
Ratio [5]: 13.5

N#Cc1ccc(OCC2CCN(Cc3ccc(F)cc3)CC2)cc1
logP [2]: 3.22
Ratio [7]: 6.84
Ki (D(2) dopamine receptor): > 10000 nM
Ki [3]: > 10000 nM
Ki (Sigma 2 receptor [4]): 5.2 nM

N#Cc1ccc(OCC2CCN(CCF)CC2)cc1
logP [2]: 2.42
Ki (D(2) dopamine receptor): > 10000 nM
Ki [3]: > 10000 nM
Ki (Sigma 2 receptor [4]): 361 nM
Ratio [5]: 14.9

N#Cc1ccc(OCC2CCN(Cc3ccccc3I)CC2)cc1
logP [2]: 4.3
Ki [3]: > 1000 nM
Ki (Sigma 2 receptor [4]): 93.6 nM
Ratio [5]: 10.1

O=[N+]([O-])c1ccc(OCC2CCN(CC3CC3)CC2)cc1
Ki [3]: > 200 nM
Ki [6]: 13 nM

Brc1cccc(OCC2CCN(CC3CC3)CC2)c1
logP [2]: 6.36
Ki (D(2) dopamine receptor): > 10000 nM
Ki [3]: > 10000 nM
Ki (Sigma 2 receptor [4]): 9.9 nM
Ratio [5]: 11.3

O=[N+]([O-])c1ccc(OCC2CCN(Cc3ccc(F)cc3)CC2)cc1
logP [2]: 3.62
Ki (D(2) dopamine receptor): > 10000 nM
Ki [3]: > 10000 nM
Ki (Sigma 2 receptor [8]): 3.9 nM
Ratio [9]: 3.25

FCCN1CCC(COc2ccc(I)cc2)CC1
logP [2]: 4.02
Ki (D(2) dopamine receptor): > 10000 nM
Ki [3]: > 10000 nM
Ki (Sigma 2 receptor [4]): 102 nM
Ratio [5]: 121

CC(C)=CCN1CC[C@]2(C)c3cc(O)ccc3C[C@H]1[C@H]2C (single isomer, unassigned) [(+)-PENTAZOCINE]
Blockade (Rattus norvegicus [10]): 84%

OCCN1CCC(COc2ccc(I)cc2)CC1
logP [2]: 3.8
Ki (D(2) dopamine receptor): > 10000 nM
Ki [3]: > 10000 nM
Ki (Sigma 2 receptor [4]): 139 nM
Ratio [5]: 60.4

FCCCN1CCC(COc2ccc(Br)cc2)CC1
logP [2]: 5.88
Ki (D(2) dopamine receptor): > 10000 nM
Ki [3]: > 10000 nM
Ki (Sigma 2 receptor [4]): 13.1 nM
Ratio [5]: 34.5
